The structures appear in SMILES notation. Bounds are passed on as bounds.

Experiment [1] has as its target T1, PDE10 (Homo sapiens, UniProt Q9Y233).
T1 construct: made in house; host or cells: Sf9 insect cells (baculovirus)
Kind of experiment: PDE10 biochemical assay (two-step Thompson and Appleman method or SPA). The following applies: PDE10 inhibition.

In experiment [2] the test system is C57BL/6 male mice. The experiment is described as follows: PCP-induced hyperactivity model of psychosis. It is filed as in vivo. The following applies: vs vehicle+PCP control. On the procedure: (§1) Dosing of the compounds is by intraperitoneal (i.p.) injection or oral gavage (p.o.). Intraperitoneal injection is accomplished by restraining the animal, exposing the abdomen and inserting the needle just above the knees on the mouse's right side. Oral gavage is performed by restraining the animal in such a way that its head is tilted back and the esophagus is relatively straight. The gavage needle (20 G×1.5″, Cadence Science) is inserted into the mouth in line with the body and gently pushed along the esophagus and into the stomach. If resistance is encountered the needle is removed and reinserted.
Psychostimulant-induced hyperactivity is measured by injecting animals with PCP and monitoring the animals' activity levels in VersaMax chambers (Accuscan Instruments, Columbus, Ohio) measuring 40×40 cm. Locomotor activity is detected by photobeam breaks as the animal crosses each beam. The animal is placed in the center of the field and left undisturbed for 20 minutes to measure its spontaneous activity in a novel environment. Measurements used to assess locomotor activity include: horizontal activity, total distance traveled, vertical activity (rearing events—animal raises up on hindlimbs), rotation, stereotypy, and distance traveled in the center compared to total distance traveled (center:total distance ratio). The NMDA antagonist PCP induces a psychosis-like syndrome manifest as hyperactivity and increased stereotypic behavior. Known antipsychotics are able to reverse psychostimulant-induced hyperactivity and stereotypy.
C57BL/6 male mice were given either compound 1-1 or vehicle by intraperitoneal injection (FIG. 1) or oral gavage (FIG. 2). Twenty minutes (for i.p.) or forty minutes (for p.o.) later, they were injected with PCP (5 mg/kg, i.p.). Ten minutes later, the mice were placed in activity chambers and their locomotor activity in the horizontal dimension was monitored by infrared beam breaks for 20 min (5 consecutive 4-minute intervals (INT) as indicated).
C57BL/6 male mice were given either compound 2-1 or vehicle by intraperitoneal injection (FIG. 3) or oral gavage (FIG. 4). Twenty minutes (for i.p.) or 40 minutes (for p.o.) later, they were injected with PCP (5 mg/kg, i.p.). Ten minutes later, the mice were placed in activity chambers and their locomotor activity in the horizontal dimension was monitored by infrared beam breaks for 20 min (5 consecutive 4-minute intervals (INT) as indicated).
C57BL/6 male mice were given either compound 11-1 or vehicle by intraperitoneal injection. Five minutes later they were injected with PCP (5 mg/kg, i.p.). Ten minutes later, the mice were placed in activity chambers and their locomotor activity in the horizontal dimension was monitored by infrared beam breaks for 20 min (5 consecutive 4-minute intervals (INT) as indicated).

Experiment [3] deals with PDE10. To be noted: PDE10, in vitro binding studies; read-out: dissociation constant (Kd) for cGMP binding; cited from earlier work.
Experiment [4] relates to C57BL/6 male mice. Kind of experiment: Conditioned avoidance response (CAR) model of psychosis. It is filed as in vivo. The following applies: 12 mg/kg oral gavage, 30 minutes before testing; vs vehicle. On the procedure: as §1
Conditioned avoidance response (CAR) is a behavioral test to evaluate the antipsychotic effect of a test compound. It utilizes a shuttle box (Med Associates, St. Albans, Vt.) with two identical chambers separated by a retractable door. Each chamber is fitted with a metal grid floor that is capable of delivering electric shocks independently. A computer program is used to implement the testing paradigm as well as record the animal's movement between the two chambers through infrared beam sensors. The testing paradigm is as follows. A mouse is placed into one chamber. A light (conditioned stimulus, CS) comes on. Five seconds later, mild electric shocks (0.4 mA; (unconditioned stimulus, US) are delivered to the chamber where the mouse is located (as detected by infrared beams) until the mouse escapes to the adjacent chamber or until 10 sec has elapsed. The US and CS always co-terminate. With randomized inter-trial intervals averaging 15 sec, 30 such CS-US pairing trials are given to each mouse each day. For each trial, an escape response is registered if the mouse crosses to the other chamber after being shocked (i.e., during the 10-sec US period), and an avoidance response is registered if the mouse crosses to the other chamber during the first 5-sec CS only period. The animals are trained in this paradigm for 30-40 days, during which the average percentage of avoidance responses will improve to 80-90%. […] These trained animals are then used for compound testing with the same paradigm.
C57BL/6 male mice were trained in the CAR paradigm to predict and avoid the noxious stimulus (foot shock), reaching a plateau of approximately 25 avoidance responses per 30 trials each day. […] Vehicle treatment and compound treatment were given to the same animals on alternating days, and the effect of compound in reducing avoidance response was analyzed through within-subject comparison (paired t-test).
C57BL/6 male mice were trained in the CAR paradigm to predict and avoid the noxious stimulus (foot shock), reaching a plateau of approximately 25-28 avoidance responses per 30 trials (“training plateau”) each day. […] Vehicle treatment and compound treatment were given to the same animals on alternating days, and the effect of compound in reducing avoidance response was analyzed through within-subject comparison (paired t-test).

Experiment [5] deals with PDE10. The following applies: Soderling and Beavo 2000, read-out: IC50 (50% inhibitory concentration); cited from earlier work.

T1 sequence (Q9Y233 1-779 isoform Q9Y233-1): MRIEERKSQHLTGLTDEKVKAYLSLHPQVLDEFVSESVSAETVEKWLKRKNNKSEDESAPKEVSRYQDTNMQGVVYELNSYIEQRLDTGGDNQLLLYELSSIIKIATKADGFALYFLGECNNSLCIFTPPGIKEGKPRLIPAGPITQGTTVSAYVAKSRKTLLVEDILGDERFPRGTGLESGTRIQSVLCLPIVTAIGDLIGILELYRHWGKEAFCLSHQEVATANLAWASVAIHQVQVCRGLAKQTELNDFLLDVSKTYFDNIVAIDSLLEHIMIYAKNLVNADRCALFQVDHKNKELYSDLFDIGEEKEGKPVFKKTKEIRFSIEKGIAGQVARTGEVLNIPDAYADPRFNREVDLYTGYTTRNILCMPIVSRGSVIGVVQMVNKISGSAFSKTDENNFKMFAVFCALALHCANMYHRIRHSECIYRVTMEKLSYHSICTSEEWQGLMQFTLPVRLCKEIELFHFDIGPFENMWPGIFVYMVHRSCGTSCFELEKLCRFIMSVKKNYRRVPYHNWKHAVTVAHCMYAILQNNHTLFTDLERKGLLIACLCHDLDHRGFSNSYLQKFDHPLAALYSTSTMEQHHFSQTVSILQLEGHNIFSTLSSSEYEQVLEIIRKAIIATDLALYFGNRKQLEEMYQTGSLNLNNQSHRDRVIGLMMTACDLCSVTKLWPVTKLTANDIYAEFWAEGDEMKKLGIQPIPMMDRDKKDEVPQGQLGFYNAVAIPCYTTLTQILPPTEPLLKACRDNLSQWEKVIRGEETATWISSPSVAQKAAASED

Turning to `COc1cc(-c2coc(C(=O)C(OC)c3ccc(-c4nnc(C)o4)cc3)n2)cc(OC)c1Br` (centres unmarked) [Compound 11-1, 1-(4-(4-Bromo-3,5-Dimethoxyphenyl)Oxazol-2-Yl)-2-Methoxy-2-(4-(5-Methyl-1,3,4-Oxadiazol-2-Yl)Phenyl)Ethanone], the IC50 in experiment [1] was no more than 1000 nM. In addition, in experiment [2] (10 mg/kg i.p., 5 min before PCP (5 mg/kg, i.p.)), the “reduction of PCP-induced hyperactivity (horizontal locomotor activity)” value is given as “significantly reduces”.

As for `Nc1nc2c(ncn2[C@@H]2O[C@@H]3COP(=O)(O)O[C@H]3[C@H]2O)c(=O)[nH]1` [cGMP], the Kd in experiment [3] is greater than 9000 nM.

As for `COc1cc(-c2coc(C(=O)C(OC)c3ccc(N4CCOCC4)cc3)n2)cc(OC)c1Br` (centres unmarked) [Compound 2-1, 1-(4-(4-Bromo-3,5-Dimethoxyphenyl)Oxazol-2-Yl)-2-Methoxy-2-(4-Morpholinophenyl)-Ethanone], the “reduction of number of avoidance responses (CAR)” value in experiment [4] is on record as “significantly reduces”. For the same molecule, the IC50 in experiment [1] is no more than 1000 nM. Further, the “reduction of PCP-induced hyperactivity (horizontal locomotor activity)” value in experiment [2] (10 mg/kg i.p., 20 min before PCP (5 mg/kg, i.p.)) was “significantly reduces”; in experiment [2] (10 mg/kg oral gavage, 40 min before PCP (5 mg/kg, i.p.)) it was “effective”.

Consider `CC(C)Cn1c(=O)n(C)c(=O)c2[nH]cnc21` [IBMX], for which the IC50 in experiment [5] was 2600 nM.
